From patent publication US10799597B2, “Subcutaneous administration of antibody-drug conjugates for cancer therapy” (Immunomedics, Inc., priority 2017, dated 2020)

Legend:
Calu-3 = experiment: Signaling events (p21Waf1/Cip1, p53) in Calu-3 cells; format: cell-based, human
Text: (§1) SN-38 is known to activate several signaling pathways in cells, leading to apoptosis (e.g., Cusack et al., 2001, Cancer Res 61:3535-40; Liu et al. 2009, Cancer Lett 274:47-53; Lagadec et al., 2008, Br J Cancer 98:335-44). Our initial studies examined the expression of 2 proteins involved in early signaling events (p21^Waf1/Cip1 and p53) and 1 late apoptotic event [cleavage of poly-ADP-ribose polymerase (PARP)] in vitro (not shown).

BxPC-3 = experiment: Signaling events (p21Waf1/Cip1, p53) in BxPC-3 cells; format: cell-based, human
Text: as §1

MDA-MB-468 = experiment: MTS cytotoxicity assay, MDA-MB-468; format: cell-based, human; conditions: Example 5, 96 h
[1] = Body weight loss in the murine therapy studies; format: in vivo, mice; conditions: all murine studies
[2] = system: diverse metastatic cancers; experiment: Phase I/II clinical trial of IMMU-132 (Example 9): best response and TTP
[3] = Tolerability in Cynomolgus monkeys; format: in vivo, Cynomolgus monkeys (Macaca fascicularis)
Procedure: FIG. 5C. Tolerability of hRS7-CL2A-SN-38 in Cynomolgus monkeys. […] All animals were bled on day −1, 3, and 6. Four monkeys were bled on day 11 in the 0.96 mg/kg group, 3 in the 1.92 mg/kg group. Changes in neutrophil counts in Cynomolgus monkeys.
FIG. 5D. Tolerability of hRS7-CL2A-SN-38 in Cynomolgus monkeys. […] All animals were bled on day −1, 3, and 6. Four monkeys were bled on day 11 in the 0.96 mg/kg group, 3 in the 1.92 mg/kg group. Changes in platelet counts in Cynomolgus monkeys.

FIG. 3A = experiment: FIG. 3A
Procedure: Table printed on a drawing sheet, FIG. 3A
Footnotes: CL2-SN-38: AA = Phe / CL2A-SN-38: AA = None
The patent's description of the figure: FIG. 3A. Structures of CL2-SN-38 and CL2A-SN-38.
FIG. 3C. […] Capan-1 mice (N=10) were treated with 0.2 mg/kg ADC and tumors measured weekly.

[4] = system: Calu-3 non-small cell lung carcinoma xenografts; experiment: Therapy of Calu-3 tumor xenografts in nude mice; format: in vivo, athymic nude mice; conditions: 0.4 mg/kg SN-38 q4dx4
Procedure: FIG. 4A. […] Mice bearing Calu-3 tumors (N=5-7) were injected with hRS7-CL2-SN-38 every 4 days for a total of 4 injections (q4dx4).

metastatic colon cancer [5] = experiment: Subcutaneous IMMU-130 in a patient with metastatic colon cancer (Example 11); format: in vivo, human; conditions: s.c. 4 mg/kg 3 times weekly for 2 weeks, 3 cycles; CT 8 weeks from treatment begin
Procedure: A person with metastatic colon cancer (3-5 cm diameters) to their left and right liver lobes, as well as a 5 cm metastasis to their right lung, and an elevated blood CEA value of 130 ng/mL, is treated with the anti-CEACAM-5 ADC IMMU-130 (hMN-14-CL2A-SN-38) administered subcutaneously at a dosage of 4 mg/kg, given 3 times weekly for 2 weeks, followed by rest, with 3 cycles of drug administration. […] Repeated courses of therapy continue as their neutropenia normalizes.

[6] = system: LS174T human colon carcinoma xenografts; experiment: IMMU-130 therapy of s.c. LS174T xenografts in nude mice; format: in vivo, athymic nude mice; conditions: s.c. model
Procedure: (§2) Experiments were conducted in female athymic nude mice, 4 weeks or older, bearing s.c. LS174T human colon carcinoma xenografts of (˜0.2 cm^3 size), or 2 weeks after lung metastases were generated by i.v. injection of GW-39 human colon carcinoma cells. Untreated controls, including a non-targeting ADC, were included. […] Tolerability studies were conducted in white New Zealand rabbits.

[7] = system: gastric adenocarcinoma metastases; experiment: I.V. and S.C. IMMU-130 in a gastric cancer patient (Example 15); format: in vivo, human
Text: Their fourth infusion is postponed by one week, and then the weekly infusions are reinstituted, with no evidence of diarrhea or neutropenia for the next 4 injection. The patient then undergoes a CT study to measure their metastatic tumor sizes and to view the original area of gastric resection. The radiologist measures, according to RECIST criteria, a decrease of the sum of the metastatic lesions, compared to baseline prior to IMMU-130 therapy, of 23%. […] The patient's general condition improves and they resume their usual activities while continuing to receive a maintenance therapy of 3 mg/kg administered twice-weekly subcutaneously of IMMU-130 every six weeks for another 4 courses of therapy. At the last measurement of blood CEA, the value is 4.8 ng/mL, which is within the normal range for a smoker, which is the case for this patient.

metastatic colon cancer [8] = experiment: S.C. hMN-14-SN-38 ADC in advanced metastatic colon cancer (Example 16); format: in vivo, human; conditions: 2 mg/kg S.C. twice-weekly every other week, 3-month CT evaluation
Procedure: The hMN-14-SN-38 ADC is administered at a dosage of 2 mg/kg S.C., twice-weekly, which is repeated every other week for 4 months.

[9] = system: GW-39 human colon carcinoma lung metastases; experiment: IMMU-130 therapy of GW-39 lung metastases in nude mice; format: in vivo, athymic nude mice
Procedure: as §2

[10] = Tolerability study of IMMU-130 in rabbits; format: in vivo, white New Zealand rabbits; conditions: given as two doses
Procedure: as §2

[11] = Drug release from the linker in IMMU-130
[12] = system: metastatic colonic cancer; experiment: IMMU-130 in a patient with advanced colon cancer (Example 13); format: in vivo, human
Text: The patient is a person with a history of stage-IV metastatic colonic cancer, first diagnosed in 2008 and given a colectomy and partial hepatectomy for the primary and metastatic colonic cancers, respectively. […] In 2009, they received radiofrequency ablation therapy to their liver metastasis while under chemo-immunotherapy, and in late 2010 they underwent a wedge resection of their lung metastases, which was repeated a few months later, in early 2011. Despite having chemo-immunotherapy in 2011, new lung metastases appeared at the end of 2011, and in 2012, both lung and liver metastases were visualized. Their baseline plasma carcinoembryonic antigen (CEA) titer was 12.5 ng/mL just before undergoing the antibody-drug therapy with IMMU-130. The index lesions chosen by the radiologist for measuring tumor size change by computed tomography were the mid-lobe of the right lung and the liver metastases, both totaling 91 mm as the sum of their longest diameters at the baseline prior to IMMU-130 (anti-CEACAM5-SN-38) therapy.
This patient received doses of 10 mg/kg of IMMU-130 by slow IV infusion every other week for a total of 17 treatment doses. The patient tolerated the therapy well, having only a grade 1 nausea, diarrhea and fatigue after the first treatment, which occurred after treatments 4 and 5, but not therafter, because they received medication for these side-effects. After treatment 3, they did show alopecia (grade 2), which was present during the subsequent therapy. The nausea, diarrhea, and occasional vomiting lasted only 2-3 days, and their fatigue after the first infusion lasted 2 weeks. Otherwise, the patient tolerated the therapy well.

[13] = system: COLO 205 colonic adenocarcinoma xenografts
[14] = system: Capan-1 pancreatic adenocarcinoma xenografts; experiment: Therapy of Capan-1 tumor xenografts in nude mice; format: in vivo, athymic nude mice; conditions: 0.2 mg/kg SN-38 twice weekly×4 weeks
Procedure: FIG. 3C. […] Animals were treated twice weekly for 4 weeks as indicated by the arrows. Capan-1 mice (N=10) were treated with 0.2 mg/kg ADC and tumors measured weekly.
FIG. 4C. […] Capan-1 (N=10) were treated twice weekly for 4 weeks with the agents indicated.

[15] = Pharmacokinetics of MAb vs. ADC (IMMU-130) in mice; format: in vivo
Procedure: as §2

[16] = system: SK-MES-1 human squamous cell lung tumors; experiment: Therapy of SK-MES-1 tumor xenografts in nude mice; conditions: hA20 ADC equal dose; irinotecan at MTD (q2dx5)
[17] = esophageal cancer, 4 assessable patients

In the case of hRS7 IgG, the “time of p53 upregulation” value (Calu-3) is reported as 48 h and the “time of p53 upregulation” value (BxPC-3) is reported as 48 h.

With `CC(=O)O[C@H]1C(=O)[C@@]2(C)[C@H]([C@H](OC(=O)c3ccccc3)[C@]3(O)C[C@H](OC(=O)[C@H](O)[C@@H](NC(=O)c4ccccc4)c4ccccc4)C(C)=C1C3(C)C)[C@]1(OC(C)=O)CO[C@@H]1C[C@@H]2O` [paclitaxel] the IC50 (MDA-MB-468; Homo sapiens, MDA-MB-468) was < 0.061 nM.

In the case of hRS7-SN-38, the “tolerability in terms of body weight loss” value [1] is reported as “well tolerated”, the “reduction in target lesions” value ([2]; CRC patient, 8 mg/kg, first CT assessment) is reported as 37% and the “maximum reduction in target lesions” value ([2]; CRC patient, after 10 months of treatment) is reported as 65%. The “Best Response: PD, number of patients” value ([2]; CRC, 18 assessable patients) was 6, the “Best Response: PR, number of patients” value ([2]; CRC, 18 assessable patients) was 1 and the “Best Response: SD, number of patients” value ([2]; CRC, 18 assessable patients) was 11. For the same molecule, the “Best Response: PD, number of patients” value ([2]; NSCLC, 5 assessable patients) was 1, the “Best Response: PR, number of patients” value ([2]; NSCLC, 5 assessable patients) was 1 and the “Best Response: SD, number of patients” value ([2]; NSCLC, 5 assessable patients) was 3. For the same molecule, the “Best Response: PD, number of patients” value ([2]; SCLC, 4 assessable patients) was 2, the “Best Response: PR, number of patients” value ([2]; SCLC, 4 assessable patients) was 2 and the “Best Response: SD, number of patients” value ([2]; SCLC, 4 assessable patients) was 0. For the same molecule, the “Best Response: PD, number of patients” value ([2]; TNBC, 8 assessable patients) was 2, the “Best Response: PR, number of patients” value ([2]; TNBC, 8 assessable patients) was 2 and the “Best Response: SD, number of patients” value ([2]; TNBC, 8 assessable patients) was 4. For the same molecule, the “Best Response: PD, number of patients” value ([2]; all patients, 48 assessable) was 14, the “Best Response: PR, number of patients” value ([2]; all patients, 48 assessable) was 7 and the “Best Response: SD, number of patients” value ([2]; all patients, 48 assessable) was 27. For the same molecule, the “Best Response: PD, number of patients” value [2, 17] was 1, the “Best Response: PR, number of patients” value [2, 17] was 1 and the “Best Response: SD, number of patients” value [2, 17] was 2. The “tolerated cumulative human equivalent dose” value ([3]; cynomolgus monkey, in vivo) was 22 mg/m^2, the tolerated dose ([3]; mild and reversible toxicity) was 0.96 mg/kg/dose and the extrapolated human dose ([3]; per dose) was ~11 mg/m^2.

In the case of hRS7-CL2-SN-38 [listing 1 of 2 here], the “HUMAN SERUM HALF-LIFE” value (FIG. 3A) is reported as 22.1 h.

With hLL2-CL2-SN-38 [reference compound] the tumor outcome [4] was “tumors regrew”.

With “IMMU-130: CEACAM5-targeted ADC, labetuzumab-SN-38, substituted at 7-8 moles/mole of IgG” the “reduction of the total mean diameters of the 3 target lesions” value (metastatic colon cancer [5]) was 25%, the “efficacy vs. the conjugate with an ultrastable linker” value ([6]; n=5) was “superior” and the “efficacy of combination with bevacizumab” value ([6]; n=8-10, P<0.031) was “improved efficacy”. For the same molecule, the “efficacy vs. an MTD of 5 FU/leucovorin chemotherapy” value ([6]; n=10, P<0.0001) was “better”, the “decrease of the sum of the metastatic lesions (RECIST)” value ([7]; 8 mg/kg I.V. weekly, first CT study) was 23% and the grade of diarrhea ([7]; after 3 weeks of 8 mg/kg I.V.) was 1. For the same molecule, the grade of neutropenia ([7]; after 3 weeks of 8 mg/kg I.V.) was 2, the “decrease of the sum of all metastatic lesions” value ([7]; after a total of 13 infusions of 8.0 mg/kg I.V.) was 41% and the CEA titer ([7]; at first CT study, baseline 14.5 ng/mL) was 7.2 ng/mL. For the same molecule, the “blood CEA” value ([7]; last measurement, s.c. maintenance 3 mg/kg twice-weekly) was 4.8 ng/mL, the “response by RECIST criteria” value (metastatic colon cancer [8]) was “partial response” and the “effect of pre-dosing with labetuzumab on median survival” value ([9]; pre-dose up to twice the ADC dose, n=10) was “did not affect median survival”. The “median survival vs. untreated mice” value ([9]; total 50 mg/kg ADC, 2 cycles of 21 days, twice-weekly×2 weeks and once weekly×2 weeks schedules) was “doubled median survival”, the “NOAEL, human equivalent dose” value [10] was 40 to 60 mg/kg and the “time for liberating 50% of drug” value [11] was ~20 h. For the same molecule, the “grade of nausea, diarrhea and fatigue” value ([12]; 10 mg/kg IV) was 1, the “change in index lesions from baseline (CT)” value ([12]; 10 mg/kg IV every other week, after 4 treatments) was 28.6% and the “reduction in index lesions from baseline (CT)” value ([12]; after 8 treatments) was 40.6%. For the same molecule, the “anti-labetuzumab antibody in blood” value ([12]; after 16 doses) was “none was detected”, the “plasma CEA titer” value ([12]; after the third therapy dose, baseline 12.6 ng/mL) was 2.1 ng/mL and the grade of alopecia ([12]; after treatment 3) was 2. For the same molecule, the “index lesions less than baseline (CT)” value ([12]; another 2 months later) was 31.9%.

For hRS7-CL2A-SN-38, the “HUMAN SERUM HALF-LIFE” value (FIG. 3A) was 20.3 h.

With hRS7-CL2-SN-38 [listing 2 of 2 here] the “tumor growth vs. saline and hA20-CL2A-SN-38” value ([13]; 0.4 mg/kg SN-38 twice weekly×4 weeks) was “significantly inhibited tumor growth”, the “time by which all mice were cured” value [4] was ≤ 28 days and the tumor outcome [4] was “remained tumor-free until the end of the study on day 147”. For the same molecule, the “tumor growth vs. saline and hA20-CL2A-SN-38” value [14] was “significantly inhibited tumor growth” and the “mice tumor-free at the end of the study” value ([14]; day 140) was 40%.

In the case of labetuzumab, the “half-life longer for MAb vs. ADC” value [15] is reported as ~25%.

With `CCc1c2c(nc3ccc(OC(=O)N4CCC(N5CCCCC5)CC4)cc13)-c1cc3c(c(=O)n1C2)COC(=O)[C@]3(O)CC` [irinotecan, reference compound] the “effectiveness of the MTD of irinotecan” value ([13]; 24 mg SN-38/kg, q2dx5) was “as effective as hRS7-CL2-SN-38” and the “antitumor effect relative to the specific conjugate” value [16] was “provided the same antitumor effects as the specific hRS7-SN-38 conjugate”.

With `CCc1c2c(nc3ccc(O)cc13)-c1cc3c(c(=O)n1C2)COC(=O)[C@]3(O)CC` [SN-38, reference compound] the “time of p53 upregulation” value (Calu-3) was 48 h, the IC50 (MDA-MB-468) was 1.54 nM and the “time of p53 upregulation” value (BxPC-3) was 48 h.
